Consider 2 compounds from article PMC7801115, “Preclinical in vitro screening of newly synthesised amidino substituted benzimidazoles and benzothiazoles” (Journal of Enzyme Inhibition and Medicinal Chemistry, 2021).

Bounds are passed on as bounds.

The subject of series [1] is HCC827. Description: BrdU proliferation assay, 3D cell culture. Format: cell-based. As to conditions: Homo sapiens, HCC827, 3D cell culture, ±SD, N = 2. The method, then: Cells were grown in 96 well Perfecta 3 D hanging drop plates 5000 cell/well for 4 days until spheres were formed (and checked under the microscope). After sphere formation cells were treated with compounds followed by 72 h incubation. Cell viability assay was performed according to the manufacturer’s instruction, using CellTiter GLO 3 D for 3 D cell culture (Promega); cell incubation was 5 min on the shaker followed by 25 min incubation in the dark. Plates were read using PE EnVision luminescence.
(§1) Proliferation assay was performed using Cell Proliferation ELISA, BrdU (Sigma, St. Louis, MO, USA). Briefly, 48 h hours after compound addition, 10 µM of BrdU was added to each well and incubated for following 24 h. After incubation, single cell suspension was made for 3 D cell culture in the new 96 well plate. Plates were centrifuged and supernatants were removed from each plate (for 2 D and 3 D cell culture) followed by 60 min incubation at 60° C. The rest of the proliferation assay was performed according to the manufacturer instructions.
Calculation of IC50 data, curves and QC analysis is made by using Excel tools and GraphPadPrism software (La Jolla, CA), v. […] QC criteria parameters (Z', S:B, R2, HillSlope) were checked for every IC50 curve.

Series [2] concerns A549. Nature of the series: Cell viability assay, 3D hanging drop cell culture (CellTiter GLO 3D). It counts as cell-based. The settings on record: Homo sapiens; A549, 3D hanging drop cell culture, 72 h; ±SD, N = 2; read-out: IC50 antitumor activity A549 3D. An outline of the steps:
(§2)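 Spheroids formed from 5000 cells/well over 4 days in hanging drops, then treated with 1:3 compound dilutions (top 100 µM, 0.5–1.0% DMSO) for 72 h. Viability read by CellTiter-Glo 3D luminescence; IC50 from curve fits with Z', S:B, R2 and Hill slope QC.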
(In general: Cellular ATP, detected with luciferase, serves as a proxy for viable cell number.)

For series [3], the system named is HCC827. Described as above. Format: cell-based. As to conditions: Homo sapiens; HCC827, 3D hanging drop cell culture, 72 h; ±SD, N = 2; read-out: IC50 antitumor activity HCC827 3D. The gist of the method:
as §2

A short description of series [4]: Metabolic stability in liver microsomes. Format: in vitro ADME. As to conditions: 60 min. The method, then:
Tested compounds (final concentration of 1 µM, 0.1% DMSO), as well as testosterone and propranolol as positive controls and caffeine as negative control were incubated in phosphate buffer (50 mM, pH 7.4) for 60 min at 37 °C with liver microsomes (human and mouse) in the absence and presence of the NADPH cofactor. The NADPH generating system was prepared in phosphate buffer and consisted of nicotinamide adenine dinucleotide phosphate (NADP, 0.38 mM), glucose-6-phosphate (1.49 mM), glucose-6-phosphate dehydrogenase (1.5 U) and magnesium chloride (0.1 mM). Aliquots were taken at different time points (0, 10, 20, 30, 45 and 60 min) and reaction was terminated by addition of a MeCN/MeOH (2:1) mixture, containing diclofenac as internal standard. Samples were then centrifuged (at 4500 rpm, at 4 °C, for 30 min) and resulting supernatants were subjected to LC-MS/MS analysis. The in vitro half life (t½) was determined from the slope of the linear regression of ln % parent compound remaining versus incubation time. In vitro intrinsic clearance, expressed as µl/min/mg liver, was determined from in vitro half life (t½) and normalised for the protein concentration in the incubation mixture. Predicted in vivo hepatic clearance was determined from in vitro intrinsic clearance assuming 52.5 mg of protein/g of liver and using constant values for liver weight/body weight [g/kg] (25.7 for human, 87.5 for mouse) and liver blood flow (LBF) [ml/min/kg] (21 for human and 131 for mouse).
All ADME samples were analysed on a Sciex API 4000 or Sciex API4500 Triple Quadrupole Mass Spectrometer (Sciex, Framingham, MA, USA) coupled to a UHPLC System (Shimadzu Nexera X2; Shimadzu, Kyoto, Japan). Samples were injected onto an UPLC column (HALO2 C18, 2.1 × 20 mm, 2 µm or Phenomenex Luna Omega Polar C18, 30 × 2.1 mm, 1.6 µm) and eluted with a gradient at temperature of 50 °C. The mobile phase was composed of acetonitrile (with 0.1% formic acid) and 0.1% formic acid in deionised water. A total run time was 1 or 1.5 min, with the flow rate of 0.7 ml/min (under gradient conditions). A positive ion mode with turbo spray, an ion source temperature of 500 °C and a dwell time of 150 ms were utilised for mass spectrometric detection. Multiple reaction monitoring (MRM) was used at the specific transitions for each compound/control tested: compound 5c: 361.9 → 304.9; compound 5d: 344.8 → 287.9; compound 5e: 349.8 → 292.9; compound 5 g: 350.8 → 293.9; compound 5 h: 344.0 → 286.9; compound 6a: 276.9 → 220.0; compound 5 b: 319.0 → 262.0; compound 6 b: 302.1 → 245.1; compound 6c: 344.9 → 288.0; compound 6d: 333.0 → 276.0; compound 6e: 316.1 → 259.0; compound 6f: 327.1 → 270.0; compound 6 g: 377.1 → 320.1; testosterone: 289.3→ 97.1; propranolol: 260.1 → 182.8; caffeine: 195.2 → 138.1; acebutolol: 337.2 → 116.2, nicardipine: 480.2 → 315.0; verapamil: 455.4 → 165.1; amprenavir: 506.2 → 245.4; diclofenac: 296.1 → 213.7 or 296.2 → 215.3; eucatropine: 292.2 → 109.1; benfluorex: 352.1 → 230.3, and warfarin: 309.2 → 163.2

Series [5] deals with A549. Nature of the series: BrdU proliferation assay, 2D cell culture. Format: cell-based. As to conditions: Homo sapiens, A549, 2D cell culture, ±SD, N = 2. As for the experimental part:
Cells were grown in 96 well cell star polystyrene plates. 10,000 cells/well were seeded in wells 4 h prior the treatment with different compounds concentrations and incubated for 72 h. A cell viability assay was performed according to the manufacturer’s instruction, using CellTiter 96 aqueous solution, MTS kit (Promega, Madison, WI, USA). After 0.5–2 h of cell incubation with MTS in 2 D cell culture, the plates were read using PE EnVision absorbance at 490 nm. The results for each of tested compounds are reported as growth percentages from two independent concentrations curves compared with the untreated control cells after drug exposure. Since we prefer homogeneous assays (mix and read procedures) and therefore MTS is more practical (one step less than MTT). MTS is more sensitive and accurate in comparison with MTT assay.
as §1
Calculation of IC50 data, curves and QC analysis is made by using Excel tools and GraphPadPrism software (La Jolla, CA), v. 5.03. In brief, individual concentration–effect curves are generated by plotting the logarithm of the tested concentration of tested compounds (X) versus corresponding percent inhibition values (Y) using least squares (ordinary) fit. […] QC criteria parameters (Z', S:B, R2, HillSlope) were checked for every IC50 curve.

Turning to `c1ccc2cc(-c3nc4cc(C5=NCCCN5)ccc4[nH]3)ccc2c1` [Compound 6f, 2-(Naphthalene-2-yl)-5(6)–(3,4,5,6-tetrahydropyrimidin-1-ium-2-yl)benzimidazole chloride], the IC50 in the series on HCC827 [1] is more than 100 µM; in the series on A549 [2], more than 100 µM; in the series with HCC827 [3] it was more than 100 µM; with A549 [5] it was more than 50 µM. For the same compound, the “Microsomes (1 µM) Predicted in vivo hep CL, Human” value in series [4] is less than 30 %LBF. Further, the “Microsomes (1 µM) Predicted in vivo hep CL, Mouse” value in series [4] is recorded as 77 %LBF.
Take `c1ccc2c(c1)cc(-c1nc3cc(C4=NCCCN4)ccc3[nH]1)c1ccccc12` [Compound 6g, 2-(Phenanthrene-9-yl)-5(6)–(3,4,5,6-tetrahydropyrimidin-1-ium-2-yl)benzimidazole chloride]: the 50% inhibitory concentration (IC50) is more than 100 µM in the series on HCC827 [1], more than 100 µM with A549 [2], more than 100 µM in the series on HCC827 [3] and more than 50 µM in the series on A549 [5]. Also, the “Microsomes (1 µM) Predicted in vivo hep CL, Human” value in series [4] is less than 30 %LBF.

For orientation: IC50 means the concentration that inhibits the measured activity by half.
